Results from patent publication US7732622B2, “Naphthalene derivatives” (Glaxo Group Limited, priority 2001, dated 2010).
Read-outs that look alike come from different tables or passages of the source.

Molecular target: T1, human EP4 receptor (Homo sapiens, UniProt P35408)
T1 construct: expressed in transfected cells; host or cells: CHO cells infected with recombinant Semliki Forest Virus (SFV-1) particles; membranes prepared
Experiment: Human EP4 Scintillation Proximity Assay (radioligand binding)
Method: Quantification of radioligand binding by scintillation proximity assay (SPA) is a long-established principle. Briefly, the affinity of novel compounds for a receptor is assessed by the specific competition between known quantities of radiolabelled ligand and novel compound for that receptor. Increasing concentrations of novel compound reduce the amount of radiolabel that binds to the receptor. This gives rise to a diminishing scintillation signal from SPA beads coated with membranes that bear the receptor. The signal may be detected with a suitable scintillation counter and the data generated may be analysed with suitable curve-fitting software.
The human EP4 SPA assay (hereafter referred to as ‘the assay’) utilises membranes prepared from Chinese Hamster Ovary (CHO cells) infected with Semliki Forest Virus (SFV). Genetically engineered SFV-1 viral particles containing the genetic sequence of the human EP4 receptor were used to infect CHO cells resulting in expression of the receptor protein in cellular membranes. Cells washed free of media are homogenised in a pH-buffered medium containing peptidase inhibitors. A suitable buffer is of the following composition: 50 mM HEPES, 1 mM EDTA, 25 μg/ml bacitracin, 100 μM leupeptin, 1 mM PMSF, 2 μM Pepstatin A, pH adjusted to 7.4 with KOH. Following removal of cell debris by a low-speed centrifugation, a pellet of membranes is prepared by a high-speed (48000 g) centrifugation of the resulting supernatant. Membrane suspensions such as that described may be stored at −80° C. until used.
For assay, membranes expressing human EP4 receptors are diluted in a pH-buffered medium and mixed with SPA beads coated with a suitable substance to facilitate the adhesion of membranes to the beads. The concentrations of membrane protein and SPA beads chosen should result in SPA binding signal of at least 300 corrected counts per minute (CCPM) when tritiated radioligand at a concentration close to its Kd (affinity value) is combined with the mixture. Non-specific binding (nsb) may be determined by competition between the radiolabelled ligand and a saturating concentration of unlabelled ligand. In order to quantify the affinity of novel EP4 receptor ligands, compounds are diluted in a stepwise manner across the wells of a 96-well plate. Radioligand, novel compound, and unlabelled ligand are then added to a 96-well plate suitable for the measurement of SPA binding signals prior to the addition of bead/membrane mixture to initiate the binding reaction. Equilibrium may be achieved by incubation at room temperature for 120 minutes prior to scintillation counting. The data so generated may be analysed by means of a computerised curve-fitting routine in order to quantify the concentration of compound that displaces 50% of the specific radioligand binding (IC50). The affinity (pKi) of the novel compound may be calculated from the IC50 by application of the Cheng-Prusoff correction. Suitable reagents and protocols are: reaction buffer containing 50 mM HEPES, 10 mM MgCl2, pH adjusted to 7.4 with KOH; SPA beads coated with wheatgerm agglutinin; 1.25 nM [^3H]-prostaglandin E2 as radioligand; 10 μM prostaglandin E2 as unlabelled ligand; a three-fold dilution series of novel compound starting at 10 μM and ending at 0.3 nM is adequate.

[1] = SPA, membranes of CHO cells expressing human EP4 receptor, 1.25 nM [3H]-prostaglandin E2 as radioligand, pKi from IC50 by Cheng-Prusoff correction, read-out: pKi at EP4 receptors (converted)

T1 sequence (P35408 whole entry): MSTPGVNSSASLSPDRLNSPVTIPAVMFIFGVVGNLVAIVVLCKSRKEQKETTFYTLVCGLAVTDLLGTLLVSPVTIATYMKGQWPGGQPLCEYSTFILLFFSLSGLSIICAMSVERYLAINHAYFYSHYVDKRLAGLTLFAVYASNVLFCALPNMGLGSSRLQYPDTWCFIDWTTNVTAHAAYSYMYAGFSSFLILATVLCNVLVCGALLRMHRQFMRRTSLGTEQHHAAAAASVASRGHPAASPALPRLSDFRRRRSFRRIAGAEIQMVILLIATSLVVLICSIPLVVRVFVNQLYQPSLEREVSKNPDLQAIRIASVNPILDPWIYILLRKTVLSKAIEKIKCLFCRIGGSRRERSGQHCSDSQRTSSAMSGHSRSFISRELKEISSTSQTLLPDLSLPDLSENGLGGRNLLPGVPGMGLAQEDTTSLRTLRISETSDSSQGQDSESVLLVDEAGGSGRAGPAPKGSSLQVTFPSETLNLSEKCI

| SMILES | Ki [1] [nM] | Ki [nM] |
| --- | --- | --- |
| CC(C)Oc1c2c(c(OC(C)C)c3ccccc13)C(=O)N(c1ccc(CC(=O)O)cc1)C2 [Example 4, [4-(4,9-Di-isopropoxy-1-oxo-1,3-dihydro-2H-benzo[f]isoindol-2-yl)phenyl]acetic acid] | – | ≤ 1000 |
| CCCOc1c2c(c(OCCC)c3ccccc13)C(=O)N(c1ccc(CC(=O)O)cc1)C2 [Example 5, [4-(4,9-Dipropoxy-1-oxo-1,3-dihydro-2H-benzo[f]isoindol-2-yl)phenyl]acetic acid] | – | ≤ 1000 |
| CCOc1c2c(c(OCC)c3ccccc13)C(=O)N(c1ccc(CC(=O)O)cc1)C2=O [Example 12, [4-(4,9-Diethoxy-1,3-dioxo-1,3-dihydro-2H-benzo[f]isoindol-2-yl)phenyl]acetic acid] | – | ≤ 1000 |
| CCCOc1c2c(c(OCCC)c3ccccc13)C(=O)N(c1ccc(CC(=O)O)cc1)C2=O [Example 14, [4-(4,9-Dipropoxy-1,3-dioxo-1,3-dihydro-2H-benzo[f]isoindol-2-yl)phenyl]acetic acid] | ≤ 1000 | – |
| COc1c2c(c(OC)c3ccccc13)C(=O)N(c1ccc(CC(=O)O)cc1)C2 [Example 1, [4-(4,9-Dimethoxy-1-oxo-1,3-dihydro-2H-benzo[f]isoindol-2-yl)phenyl]acetic acid] | ≤ 1000 | – |

Results, then the compound that gave them:

| Ki [1] [nM] | Ki [nM] | SMILES |
| --- | --- | --- |
| ≤ 1000 | – | CC(C)Oc1c2c(c(OC(C)C)c3ccccc13)C(=O)N(c1ccc(CC(=O)O)cc1)C2=O [Example 13, [4-(4,9-Di-isopropoxy-1,3-dioxo-1,3-dihydro-2H-benzo[f]isoindol-2-yl)phenyl]acetic acid] |
| ≤ 1000 | – | CCOc1c2c(c(OC(C)C)c3ccccc13)C(=O)N(c1ccc(CC(=O)O)cc1)C2=O [Example 17, [4-(4-Ethoxy-9-isopropoxy-1,3-dioxo-1,3-dihydro-2H-benzo[f]isoindol-2-yl)phenyl]acetic acid] |
